Tests used:
[1] = Induction of anti-CD3/CD28 antibodies-stimulated human T cell activation at 4 uM assessed fold increase in CD25 expression measured by ELISA assay; assay type: functional, T cell line
[2] = biological target: T1, E3 ubiquitin-protein ligase CBL-B (Homo sapiens, UniProt Q13191); assay: Inhibition of N-terminal Avi-tagged human CBL-B (36 to 427 residues) incubated with 60 nM Src kinase for 1.5 hrs followed by incubation with fluorescently labeled UbcH5B-Ub for 1 hr and measured by TR-FRET assay; assay type: single protein
[3] = Induction of anti-CD3 antibodies-stimulated human T cell activation at 8 uM assessed fold increase in CD25 expression measured by ELISA assay; assay type: functional, T cell line; also: reference of the scale not given here
[4] = Induction of anti-CD3/CD28 antibodies-stimulated human T cell activation at 0.3 uM assessed fold increase in CD25 expression measured by ELISA assay; assay type: functional, T cell line
[5] = Induction of anti-CD3 antibodies-stimulated human T cell activation at 1 uM assessed fold increase in IL-2 secretion measured by ELISA assay; assay type: functional, T cell line; also: reference of the scale not given here
[6] = Induction of anti-CD3 antibodies-stimulated human CD4+ T cell activation in immunocompetent mouse assessed fold increase in CD25 expression at 180 mg/kg, po administered twice a day; assay type: functional; also: reference of the scale not given here
[7] = Induction of anti-CD3/CD28 antibodies-stimulated human T cell activation at 1 uM assessed fold increase in CD25 expression measured by ELISA assay; assay type: functional, T cell line
[8] = Induction of anti-CD3 antibodies-stimulated human CD8+ T cell activation in immunocompetent mouse assessed fold increase in CD25 expression at 135 mg/kg, po administered twice a day; assay type: functional; also: reference of the scale not given here
[9] = Induction of anti-CD3 antibodies-stimulated human CD8+ T cell activation in immunocompetent mouse assessed fold increase in CD25 expression at 90 mg/kg, po administered twice a day; assay type: functional; also: reference of the scale not given here
[10] = Induction of anti-CD3 antibodies-stimulated human T cell activation at 1 uM assessed fold increase in CD25 expression measured by ELISA assay; assay type: functional, T cell line; also: reference of the scale not given here
[11] = Induction of anti-CD3 antibodies-stimulated human CD8+ T cell activation in immunocompetent mouse assessed fold increase in CD25 expression at 180 mg/kg, po administered twice a day; assay type: functional; also: reference of the scale not given here
[12] = Induction of anti-CD3 antibodies-stimulated human CD4+ T cell activation in immunocompetent mouse assessed fold increase in CD25 expression at 90 mg/kg, po administered twice a day; assay type: functional; also: reference of the scale not given here
[13] = Induction of anti-CD3 antibodies-stimulated human CD8+ T cell activation in immunocompetent mouse assessed fold increase in CD25 expression at 90 mg/kg, ip administered thrice a day; assay type: functional; also: reference of the scale not given here
[14] = Induction of anti-CD3 antibodies-stimulated human CD4+ T cell activation in immunocompetent mouse assessed fold increase in CD25 expression at 135 mg/kg, po administered twice a day; assay type: functional; also: reference of the scale not given here
[15] = Induction of anti-CD3/CD28 antibodies-stimulated human T cell activation at 1 uM assessed fold increase in IL-2 secretion measured by ELISA assay; assay type: functional, T cell line
[16] = Induction of anti-CD3 antibodies-stimulated human T cell activation at 8 uM assessed fold increase in IL-2 secretion measured by ELISA assay; assay type: functional, T cell line; also: reference of the scale not given here
[17] = Induction of anti-CD3/CD28 antibodies-stimulated human T cell activation at 0.3 uM assessed fold increase in IL-2 secretion measured by ELISA assay; assay type: functional, T cell line
[18] = Induction of anti-CD3/CD28 antibodies-stimulated human T cell activation at 4 uM assessed fold increase in IL-2 secretion measured by ELISA assay; assay type: functional, T cell line
[19] = Induction of activation of human CD56+ CD3- NK cells co-cultured with human K562 cells in 5:1 ratio and assessed as increase in IFN-gamma secretion at 1 uM measured by ELISA assay; assay type: functional, Natural killer cell
[20] = Induction of activation of human CD56+ CD3- NK cells co-cultured with human K562 cells in 1:1 ratio and assessed as increase in IFN-gamma secretion at 1 uM measured by ELISA assay; assay type: functional, Natural killer cell
[21] = Induction of activation of human CD56+ CD3- NK cells co-cultured with human K562 cells in 1:1 ratio and assessed as increase in MIP1beta secretion at 1 uM measured by ELISA assay; assay type: functional, Natural killer cell
[22] = Induction of activation of human CD56+ CD3- NK cells co-cultured with human K562 cells in 5:1 ratio and assessed as increase in TNF-alpha secretion at 10 uM measured by ELISA assay; assay type: functional, Natural killer cell
[23] = Induction of activation of human CD56+ CD3- NK cells co-cultured with human K562 cells in 5:1 ratio and assessed as increase in TNF-alpha secretion at 1 uM measured by ELISA assay; assay type: functional, Natural killer cell
[24] = Induction of activation of human CD56+ CD3- NK cells co-cultured with human K562 cells in 1:1 ratio and assessed as increase in MIP1beta secretion at 10 uM measured by ELISA assay; assay type: functional, Natural killer cell
[25] = Induction of activation of human CD56+ CD3- NK cells co-cultured with human K562 cells in 1:1 ratio and assessed as increase in TNF-alpha secretion at 1 uM measured by ELISA assay; assay type: functional, Natural killer cell
[26] = Induction of activation of human CD56+ CD3- NK cells co-cultured with human K562 cells in 5:1 ratio and assessed as increase in MIP1beta secretion at 1 uM measured by ELISA assay; assay type: functional, Natural killer cell
[27] = Induction of activation of human CD56+ CD3- NK cells co-cultured with human K562 cells in 1:1 ratio and assessed as increase in IFN-gamma secretion at 10 uM measured by ELISA assay; assay type: functional, Natural killer cell
[28] = Induction of activation of human CD56+ CD3- NK cells co-cultured with human K562 cells in 1:1 ratio and assessed as increase in TNF-alpha secretion at 10 uM measured by ELISA assay; assay type: functional, Natural killer cell
[29] = Induction of activation of human CD56+ CD3- NK cells co-cultured with human K562 cells in 5:1 ratio and assessed as increase in IFN-gamma secretion at 10 uM measured by ELISA assay; assay type: functional, Natural killer cell
[30] = Induction of activation of human CD56+ CD3- NK cells co-cultured with human K562 cells in 5:1 ratio and assessed as increase in MIP1beta secretion at 10 uM measured by ELISA assay; assay type: functional, Natural killer cell
[31] = biological target: T1, E3 ubiquitin-protein ligase CBL-B; assay: Binding affinity towards N-terminal biotinylated Avi-tagged human CBL-B (36 to 427 residues) measured by surface plasmon resonance assay
[32] = biological target: T1, E3 ubiquitin-protein ligase CBL-B; assay: Inhibition of N-terminal Avi-tagged human CBL-B (36 to 427 residues) incubated with 30 nM Src kinase for 1.5 hrs followed by incubation with fluorescently labeled UbcH5B-Ub for 1 hr and measured by TR-FRET assay

T1 sequence (Q13191 whole entry, the tested form may be a part): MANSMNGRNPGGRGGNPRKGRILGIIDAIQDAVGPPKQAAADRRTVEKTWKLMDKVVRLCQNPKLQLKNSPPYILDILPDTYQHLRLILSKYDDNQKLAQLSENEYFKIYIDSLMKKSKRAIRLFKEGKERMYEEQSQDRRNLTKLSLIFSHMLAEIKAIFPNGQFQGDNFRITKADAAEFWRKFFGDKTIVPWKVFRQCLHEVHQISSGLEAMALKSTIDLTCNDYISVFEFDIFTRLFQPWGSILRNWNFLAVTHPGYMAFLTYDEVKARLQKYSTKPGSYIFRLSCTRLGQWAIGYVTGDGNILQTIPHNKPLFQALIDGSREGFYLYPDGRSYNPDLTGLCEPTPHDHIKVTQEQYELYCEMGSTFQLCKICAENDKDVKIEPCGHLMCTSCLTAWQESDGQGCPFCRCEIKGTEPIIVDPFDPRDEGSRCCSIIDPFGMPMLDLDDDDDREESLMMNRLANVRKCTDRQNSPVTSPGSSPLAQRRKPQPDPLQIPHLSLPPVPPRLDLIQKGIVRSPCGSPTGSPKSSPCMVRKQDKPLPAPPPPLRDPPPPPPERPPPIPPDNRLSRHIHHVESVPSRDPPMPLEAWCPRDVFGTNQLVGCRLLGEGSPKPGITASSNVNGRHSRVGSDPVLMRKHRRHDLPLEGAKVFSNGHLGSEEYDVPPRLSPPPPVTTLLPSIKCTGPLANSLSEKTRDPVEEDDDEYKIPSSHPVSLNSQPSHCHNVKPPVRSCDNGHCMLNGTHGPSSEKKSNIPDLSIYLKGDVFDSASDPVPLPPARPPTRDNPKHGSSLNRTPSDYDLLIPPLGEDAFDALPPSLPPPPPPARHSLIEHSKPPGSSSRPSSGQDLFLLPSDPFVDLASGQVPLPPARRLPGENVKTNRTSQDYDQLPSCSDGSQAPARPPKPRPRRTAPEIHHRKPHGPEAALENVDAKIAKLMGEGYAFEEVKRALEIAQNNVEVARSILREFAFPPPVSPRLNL

| SMILES | IC50 [2] | fold change (FC) [1] | fold change (FC) [3] | fold change (FC) [4] | fold change (FC) [5] | fold change (FC) [6] | fold change (FC) [7] | fold change (FC) [8] | fold change (FC) [9] | fold change (FC) [10] | fold change (FC) [11] | fold change (FC) [12] | fold change (FC) [13] | fold change (FC) [14] | fold change (FC) [15] | fold change (FC) [16] | fold change (FC) [17] | fold change (FC) [18] | fold change (FC) [19] | fold change (FC) [20] | also measured |
| --- | --- | --- | --- | --- | --- | --- | --- | --- | --- | --- | --- | --- | --- | --- | --- | --- | --- | --- | --- | --- | --- |
| C[C@@H](Cc1nncn1C)c1cccc(N2Cc3c(cccc3C(F)(F)F)C2=O)c1 |  |  |  |  |  | <1 |  | <1 | <1 |  | <1 |  |  | <1 |  |  |  |  |  |  |  |
| Cn1cnnc1C(F)(F)[C@](C)(F)c1cccc(N2Cc3c(cccc3C(F)(F)F)C2=O)c1 |  | 1.01 | >=1.001 | 1.01 | 0.151 |  | 1.01 |  |  | 0.601 |  |  |  |  | 1.01 | >=0.201 | 1.01 | 2.51 | <=1 | 1.01 | fold change (FC) [21]: <=1; fold change (FC) [22]: <=1; fold change (FC) [23]: <=1; fold change (FC) [24]: <=1; fold change (FC) [25]: <=1; fold change (FC) [26]: <=1; fold change (FC) [27]: 2.01; fold change (FC) [28]: 1.01; fold change (FC) [29]: 1.01; fold change (FC) [30]: <=1 |
| C[C@@H](Sc1nncn1C)c1cccc(NC(=O)c2ccc3ccccc3n2)c1 |  |  |  |  |  |  |  |  |  |  |  |  |  |  |  |  |  |  | <=1 | <=1 | fold change (FC) [21]: 1.01; fold change (FC) [22]: <=1; fold change (FC) [23]: <=1; fold change (FC) [24]: <=1; Kd [31]: ≥ 3000 nM; fold change (FC) [25]: <=1; fold change (FC) [26]: <=1; fold change (FC) [27]: <=1; fold change (FC) [28]: <=1; fold change (FC) [29]: <=1; IC50 [32]: > 10000 nM; fold change (FC) [30]: <=1 |

Continued, in another order:

| IC50 [2] | SMILES | fold change (FC) [1] | fold change (FC) [3] | fold change (FC) [4] | fold change (FC) [5] | fold change (FC) [6] | fold change (FC) [7] | fold change (FC) [8] | fold change (FC) [9] | fold change (FC) [10] | fold change (FC) [11] | fold change (FC) [12] | fold change (FC) [13] | fold change (FC) [14] | fold change (FC) [15] | fold change (FC) [16] | fold change (FC) [17] | fold change (FC) [18] | fold change (FC) [19] | fold change (FC) [20] | also measured |
| --- | --- | --- | --- | --- | --- | --- | --- | --- | --- | --- | --- | --- | --- | --- | --- | --- | --- | --- | --- | --- | --- |
| < 100 nM | Cn1cnnc1CC1(c2cccc(N3Cc4c(cc(CN5CC[C@H](F)C5)cc4C(F)(F)F)C3=O)c2)COC1 | 1.51 | >=1.001 | 1.31 | >=0.201 | 1 | 1.51 | 1 | 1 | >=1.001 | 1 | 1 | 1 | 1 | >=7.5 | >=0.201 | 5 | >=7.5 |  |  |  |
| < 100 nM | Cn1cnnc1CC1(c2cccc(N3Cc4c(cc(CN5CCC(C)(F)CC5)cc4C(F)(F)F)C3=O)c2)COC1 |  |  | 1.31 | >=0.201 | 1 | 1.31 | <1 | 1 | >=1.001 | <1 | 1 | 1 | 1 | >=7.5 |  | >=7.5 |  |  |  | Kd [31]: < 100 nM |
